# ChEMBL document CHEMBL1201862, “PubChem BioAssay data set” (2004)
#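 Five compound concentrations were applied to cells in 96-well plates for 48 hours; endpoints were derived by simple linear interpolation of the resulting dose-response curve. At the GI50, growth is halved.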 The source made the active and inactive calls. Cut-off read from the data, not from the text of the source: active = GI50 up to about 1.1 µM and inactive = higher.
# Experiments:
# Test in all cases: NCI anticancer screen, dose series, 48 h
# [1] = tested on: SK-OV-3
# [2] = tested on: KM-20L2
# [3] = tested on: HCT-116
# [4] = tested on: K562
# [5] = tested on: NCI-H23
# [6] = tested on: SF-295
# [7] = tested on: Malme-3M
# [8] = tested on: SN12C
# [9] = tested on: RXF 393
# [10] = tested on: 786-0
# [11] = tested on: HCT-15
# [12] = tested on: UACC-62
# [13] = tested on: RXF 631
# [14] = tested on: XF498
# [15] = tested on: HOP-92
# [16] = tested on: A549
# [17] = tested on: HL-60
# [18] = tested on: UO-31
# [19] = tested on: LXFL 529
# [20] = tested on: SNB-75
# [21] = tested on: NCI-H522
# [22] = tested on: COLO 205
# [23] = tested on: OVCAR-5
# [24] = tested on: UACC-257
# [25] = tested on: TK-10
# [26] = tested on: KM12
# [27] = tested on: IGROV-1
# [28] = tested on: SK-MEL-2
# [29] = tested on: OVCAR-8
# [30] = tested on: U-251
# [31] = tested on: SK-MEL-5
# [32] = tested on: SNB-19
# [33] = tested on: SNB-78
# [34] = tested on: HOP-62
# [35] = tested on: SF-539
# [36] = tested on: SK-MEL-28
# [37] = tested on: NCI-H226
# [38] = tested on: CAKI-1
# [39] = tested on: MOLT-4
# [40] = tested on: M14
# [41] = tested on: CCRF-CEM
# [42] = tested on: A498
# [43] = tested on: DMS-273
# [44] = tested on: DLD-1
# [45] = tested on: SR
# [46] = tested on: ACHN
# [47] = tested on: SW-620
# [48] = tested on: HT-29
# [49] = tested on: RPMI-8226
# [50] = tested on: NCI-H460
# [51] = tested on: SF-268
# [52] = tested on: LOX IMVI
# [53] = tested on: M19-MEL
# [54] = tested on: OVCAR-4
# [55] = tested on: HOP-18
# [56] = tested on: EKVX
# [57] = tested on: DMS-114
# [58] = tested on: HCC 2998
# [59] = tested on: OVCAR-3
compound,measurement,setting,value
CC(C)c1cccc(C(C)C)c1NC(=O)C(=O)C1SC(=S)NC1=O (stereo not drawn),GI50,[1],> 100 µM (inactive)
same,GI50,[2],> 100 µM (inactive)
same,GI50,[3],> 100 µM (inactive)
same,GI50,[4],> 100 µM (inactive)
same,GI50,[5],> 100 µM (inactive)
same,GI50,[6],> 100 µM (inactive)
same,GI50,[7],> 100 µM (inactive)
same,GI50,[8],> 100 µM (inactive)
same,GI50,[9],> 100 µM (inactive)
same,GI50,[10],> 100 µM (inactive)
same,GI50,[11],> 100 µM
same,GI50,[12],> 100 µM (inactive)
same,GI50,[13],> 100 µM (inactive)
same,GI50,[14],> 100 µM (inactive)
same,GI50,[15],> 100 µM (inactive)
same,GI50,[16],> 100 µM (inactive)
same,GI50,[17],> 100 µM (inactive)
same,GI50,[18],> 100 µM (inactive)
same,GI50,[19],> 100 µM (inactive)
same,GI50,[20],> 100 µM (inactive)
same,GI50,[21],> 100 µM (inactive)
same,GI50,[22],> 100 µM (inactive)
same,GI50,[23],> 100 µM (inactive)
same,GI50,[24],> 100 µM (inactive)
same,GI50,[25],> 100 µM (inactive)
same,GI50,[26],> 100 µM (inactive)
same,GI50,[27],> 100 µM (inactive)
same,GI50,[28],> 100 µM (inactive)
same,GI50,[29],> 100 µM (inactive)
same,GI50,[30],> 100 µM (inactive)
same,GI50,[31],> 100 µM (inactive)
same,GI50,[32],> 100 µM (inactive)
same,GI50,[33],> 100 µM (inactive)
same,GI50,[34],> 100 µM (inactive)
same,GI50,[35],> 100 µM (inactive)
same,GI50,[36],> 100 µM (inactive)
same,GI50,[37],> 100 µM (inactive)
same,GI50,[38],> 100 µM (inactive)
same,GI50,[39],> 100 µM (inactive)
same,GI50,[40],> 100 µM (inactive)
same,GI50,[41],> 100 µM (inactive)
same,GI50,[42],> 100 µM (inactive)
same,GI50,[43],> 100 µM (inactive)
same,GI50,[44],> 100 µM (inactive)
same,GI50,[45],> 100 µM (inactive)
same,GI50,[46],> 100 µM (inactive)
same,GI50,[47],> 100 µM (inactive)
same,GI50,[48],> 100 µM (inactive)
same,GI50,[49],> 100 µM (inactive)
same,GI50,[50],> 100 µM (inactive)
same,GI50,[51],> 100 µM (inactive)
same,GI50,[52],> 100 µM (inactive)
same,GI50,[53],> 100 µM (inactive)
same,GI50,[54],> 100 µM (inactive)
same,GI50,[55],> 100 µM (inactive)
same,GI50,[56],> 100 µM (inactive)
COC(=O)/C([Se]c1c(C)cc(C)cc1C)=C(/[Se]c1c(C)cc(C)cc1C)C(=O)OC,GI50,[1],> 100 µM (inactive)
same,GI50,[2],> 100 µM (inactive)
same,GI50,[3],> 100 µM (inactive)
same,GI50,[4],> 100 µM (inactive)
same,GI50,[57],> 99.3 µM (inactive)
same,GI50,[5],> 100 µM (inactive)
same,GI50,[6],> 100 µM (inactive)
same,GI50,[7],> 100 µM (inactive)
same,GI50,[8],> 100 µM (inactive)
same,GI50,[9],> 100 µM (inactive)
same,GI50,[10],> 100 µM (inactive)
same,GI50,[11],81.3 µM
same,GI50,[12],> 100 µM (inactive)
same,GI50,[13],> 100 µM (inactive)
same,GI50,[58],> 100 µM (inactive)
same,GI50,[15],68.4 µM (inactive)
same,GI50,[16],> 100 µM (inactive)
same,GI50,[17],> 100 µM (inactive)
same,GI50,[18],> 100 µM (inactive)
same,GI50,[19],> 100 µM (inactive)
same,GI50,[20],> 100 µM (inactive)
same,GI50,[21],> 100 µM (inactive)
same,GI50,[22],> 100 µM (inactive)
same,GI50,[23],> 100 µM (inactive)
same,GI50,[24],> 100 µM (inactive)
same,GI50,[25],> 100 µM (inactive)
same,GI50,[26],> 100 µM (inactive)
same,GI50,[27],> 100 µM (inactive)
same,GI50,[28],> 100 µM (inactive)
same,GI50,[29],> 100 µM (inactive)
same,GI50,[30],> 100 µM (inactive)
same,GI50,[31],86.3 µM (inactive)
same,GI50,[32],> 100 µM (inactive)
same,GI50,[33],> 100 µM (inactive)
same,GI50,[34],> 100 µM (inactive)
same,GI50,[35],> 100 µM (inactive)
same,GI50,[37],> 100 µM (inactive)
same,GI50,[38],> 100 µM (inactive)
same,GI50,[39],47.3 µM (inactive)
same,GI50,[40],> 100 µM (inactive)
same,GI50,[41],> 100 µM (inactive)
same,GI50,[42],> 100 µM (inactive)
same,GI50,[43],> 100 µM (inactive)
same,GI50,[44],> 100 µM (inactive)
same,GI50,[45],39.9 µM (inactive)
same,GI50,[46],> 100 µM (inactive)
same,GI50,[47],> 100 µM (inactive)
same,GI50,[48],91.2 µM (inactive)
same,GI50,[49],76 µM (inactive)
same,GI50,[50],78.7 µM (inactive)
same,GI50,[51],> 100 µM (inactive)
same,GI50,[52],> 100 µM (inactive)
same,GI50,[53],> 100 µM (inactive)
same,GI50,[54],> 100 µM (inactive)
same,GI50,[55],> 100 µM (inactive)
same,GI50,[56],> 100 µM (inactive)
same,GI50,[59],> 100 µM (inactive)
